Consider 50 compounds from PMC5863483, “Low HLA binding of diabetes-associated CD8+ T-cell epitopes is increased by post translational modifications” (BMC Immunology, 2018).

Read-outs that look alike come from different tables or passages of the source. *1 amine or outer side, *2 acyl side, *3 side chain or, on linkers, in order; H or OH if unused. Where a SMILES comes first, the peptide text is derived from it. Where no end group is shown, it is not given here. [ ]: non-standard residue; d: D form. Tyr(3-Cl) = N[C@@H](Cc1ccc(O)c(Cl)c1)C(=O)O; γGlu = O=C(O)[C@H](CCC(=O)[*:2])N[*:1]; βAsp = O=C(O)[C@H](CC(=O)[*:2])N[*:1]; Cya = N[C@@H](CS(=O)(=O)O)C(=O)O; Cit = NC(=O)NCCC[C@H](N)C(=O)O

The target of this experiment is HLA-A*02:01 (Homo sapiens, UniProt P04439, D140Y/D185E/D98H/E176V/E277Q/G131W/G231S/I119V/I121R/I166T/I218V/L300P/L318F/N151K/N90K/P208A/P217A/Q86G/Q94H/R138H/R169H/T345S). Briefly: HLA-peptide competition binding assay, A*02:01.
[1] abbreviates: read-out: IC50 nM, target assay A*02:01.
The mark [2] stands for this setting: unmodified (WT) insulin peptide, competition binding assay, a dash indicates IC50 >40,000 nM, read-out: A*02:01 binding (IC50 nM) WT.
[3] abbreviates: post-translationally modified insulin-derived peptide, radiolabeled ligand competition, purified MHC, two-day incubation, three or more independent experiments, read-out: A*02:01 binding, Modified.
The mark [4] stands for this setting: post-translationally modified insulin peptide, competition binding assay, a dash indicates IC50 >40,000 nM, read-out: A*02:01 binding (IC50 nM) Modified.
Setting [5] is: read-out: A*02:01 binding (IC50 nM) Modified.
Setting [6] is: unmodified (wild type) insulin-derived peptide, radiolabeled ligand competition, purified MHC, two-day incubation, three or more independent experiments, read-out: A*02:01 binding, WT.
The mark [7] stands for this setting: read-out: A*02:01 binding (IC50 nM) WT.

Turning to `CC[C@H](C)[C@H](NC(=O)[C@H](CC(N)=O)NC(=O)[C@H](C)NC(=O)[C@H](CC(C)C)NC(=O)[C@@H](N)CCCCN)C(=O)N[C@@H](CCC(N)=O)C(=O)N[C@@H](CS)C(=O)N[C@@H](CC(C)C)C(=O)N[C@@H](CS)C(=O)N[C@@H](CC(C)C)C(=O)O` [reference compound] (H-KLANIQCLCL-OH), the IC50 under setting [1] is 97 nM. The same measure, in the same setting: next, “RLLPLLALLAL [RLLPLLALLAL, reference compound]”: 109 nM. Take YTPKTRREA: the IC50 under setting [2] is > 40000 nM. For the compound STVASRLGPV [reference compound], the IC50 under setting [1] was 25100 nM. On the same count and under the same terms, next, ALGDLFQSI [reference compound]: 76 nM. As to `CSCC[C@H](NC(=O)[C@H](Cc1c[nH]c2ccccc12)NC(=O)[C@@H](N)CC(C)C)C(=O)N[C@@H](CCCNC(N)=O)C(=O)N[C@@H](CC(C)C)C(=O)N[C@@H](CC(C)C)C(=O)N1CCC[C@H]1C(=O)N[C@@H](CC(C)C)C(=O)N[C@@H](CC(C)C)C(=O)N[C@@H](C)C(=O)O` (H-LWM[Cit]LLPLLA-OH), the IC50 under setting [3] turned out to be 61 nM. Consider SVASLLPHV [reference compound], for which, under setting [1], the IC50 was 1760 nM.

Consider FLWSVFMLI [reference compound], for which the IC50 under setting [1] came out at 26 nM.

As for LVCGERGYFY, the IC50 under setting [4] is > 40000 nM. On the same count and under the same terms, next, `CC(C)C[C@H](NC(=O)[C@H](Cc1c[nH]cn1)NC(=O)[C@H](CCC(N)=O)NC(=O)[C@H](CC(N)=O)NC(=O)[C@@H](NC(=O)[C@@H](N)Cc1ccccc1)C(C)C)C(=O)N[C@@H](CS(=O)(=O)O)C(=O)NCC(=O)N[C@@H](CO)C(=O)N[C@@H](Cc1c[nH]cn1)C(=O)O` [FVNQHLBGSH] (H-FVNQHL[Cya]GSH-OH; N-terminus and C-terminus assumed): > 40000 nM. The same measure, in the same setting: next, DEHLCGSHL: > 40000 nM. YLVCGERGY: the IC50 under setting [5] worked out at 10800 nM. The compound `CC(C)C[C@H](NC(=O)[C@H](C)NC(=O)[C@@H](N)CCC(=O)O)C(=O)N[C@@H](Cc1ccc(O)cc1)C(=O)N[C@@H](CC(C)C)C(=O)N[C@H](C(=O)N[C@@H](CS)C(=O)NCC(=O)N[C@@H](CCC(=O)O)C(=O)N[C@@H](CCCNC(N)=O)C(=O)O)C(C)C` (H-EALYLVCGE[Cit]-OH) displayed an IC50 of 3100 nM.

As to `CC(C)C[C@H](NC(=O)[C@H](CC(=O)O)NC(=O)[C@H](CCC(=O)O)NC(=O)[C@H](C)NC(=O)[C@H](CCC(=O)O)NC(=O)[C@H](CCCNC(N)=O)NC(=O)[C@H](CCCNC(N)=O)NC(=O)[C@@H](NC(=O)[C@@H](N)CCCCN)[C@@H](C)O)C(=O)O` (H-KT[Cit][Cit]EAEDL-OH; N-terminus and C-terminus assumed), the IC50 under setting [4] was > 40000 nM. Take HLSYHRLLPL [reference compound]: the IC50 under setting [1] is 4260 nM. For `CC(C)[C@H](N)C(=O)N[C@@H](CS)C(=O)NCC(=O)N[C@@H](CCC(=O)O)C(=O)N[C@@H](CCCNC(N)=O)C(=O)NCC(=O)N[C@@H](Cc1ccccc1)C(=O)N[C@@H](Cc1ccccc1)C(=O)N[C@@H](Cc1ccc(O)cc1)C(=O)O` (H-VCGE[Cit]GFFY-OH), under setting [5], the IC50 amounted to 33500 nM. In the case of `CC(C)C[C@H](NC(=O)[C@H](Cc1c[nH]cn1)NC(=O)[C@H](CO)NC(=O)CNC(=O)[C@H](CS(=O)(=O)O)NC(=O)[C@H](CC(C)C)NC(=O)[C@@H](N)Cc1c[nH]cn1)C(=O)N[C@H](C(=O)N[C@@H](CCC(=O)O)C(=O)O)C(C)C` [HLBGSHLVE] (H-HL[Cya]GSHLVE-OH; N-terminus and C-terminus assumed), the IC50 under setting [4] was > 40000 nM.

As to ERGYYYTPKT, the IC50 under setting [3] was 5730 nM.

On to `C[C@@H](O)[C@H](NC(=O)[C@H](Cc1ccc(O)cc1)NC(=O)[C@H](Cc1ccccc1)NC(=O)[C@H](Cc1ccccc1)NC(=O)CNC(=O)[C@H](CCCNC(N)=O)NC(=O)[C@H](CCC(=O)O)NC(=O)CN)C(=O)N1CCC[C@H]1C(=O)O` (H-GE[Cit]GFFYTP-OH; N-terminus and C-terminus assumed), for which, under setting [4], the IC50 was > 40000 nM. For `CC(C)C[C@H](NC(=O)[C@H](CC(C)C)NC(=O)[C@H](C)NC(=O)[C@H](CC(C)C)NC(=O)[C@H](CC(C)C)NC(=O)[C@@H]1CCCN1C(=O)[C@H](CC(C)C)NC(=O)[C@H](CC(C)C)NC(=O)[C@@H](N)CCCNC(N)=O)C(=O)O` (H-[Cit]LLPLLALL-OH), the IC50 under setting [5] turned out to be 83 nM.

Take `C[C@H](NC(=O)[C@H](CCC(=O)O)NC(=O)[C@H](CCCNC(N)=O)NC(=O)[C@H](CCCNC(N)=O)NC(=O)[C@@H](NC(=O)[C@H](CCCCN)NC(=O)[C@@H]1CCCN1C(=O)[C@@H](NC(=O)[C@@H](N)Cc1ccc(O)cc1)[C@@H](C)O)[C@@H](C)O)C(=O)N[C@@H](CCC(=O)O)C(=O)O` (H-YTPKT[Cit][Cit]EAE-OH; N-terminus and C-terminus assumed): under setting [4], the IC50 is > 40000 nM. Take QHLCGSHLV: the IC50 reads like this: under setting [2], > 40000 nM; under setting [6], > 40000 nM.

With `C[C@H](NC(=O)[C@H](CCC(=O)O)NC(=O)[C@H](CCCNC(N)=O)NC(=O)[C@H](CCCNC(N)=O)NC(=O)[C@@H](NC(=O)[C@H](CCCCN)NC(=O)[C@@H]1CCCN1C(=O)[C@@H](NC(=O)[C@@H](N)Cc1ccc(O)cc1)[C@@H](C)O)[C@@H](C)O)C(=O)O` (H-YTPKT[Cit][Cit]EA-OH), under setting [5], the IC50 worked out at 34700 nM. For the compound CGSHLVEAL [CGSHLVEAL], the IC50 under setting [2] was > 40000 nM. YLVCGERGYF: the IC50 under setting [5] is 2010 nM. For RLLYPDYQI [reference compound], the IC50 under setting [1] stood at 124 nM. The same measure, in the same setting: next, GVFIQVYEV [reference compound]: 460 nM; WLLPLWAALPL [reference compound]: 3.2 nM. Turning to `CC[C@H](C)[C@H](NC(=O)CNC(=O)[C@H](CCCNC(N)=O)NC(=O)[C@H](CCCCN)NC(=O)[C@@H](N)CCC(N)=O)C(=O)N[C@H](C(=O)N[C@@H](CCC(=O)O)C(=O)N[C@@H](CCC(N)=O)C(=O)N[C@@H](CS)C(=O)O)C(C)C` (H-QK[Cit]GIVEQC-OH; N-terminus and C-terminus assumed), the IC50 under setting [4] was > 40000 nM.

As for FVDEHLCGSH, under setting [4], the IC50 is > 40000 nM. Still for that read-out and setting: next, `CC[C@H](C)[C@H](NC(=O)CNC(=O)[C@H](CCCNC(N)=O)NC(=O)[C@H](CCCCN)NC(=O)[C@H](CCC(N)=O)NC(=O)[C@@H](N)CC(C)C)C(=O)N[C@H](C(=O)N[C@@H](CCC(=O)O)C(=O)N[C@@H](CCC(N)=O)C(=O)N[C@@H](CS)C(=O)O)C(C)C` (H-LQK[Cit]GIVEQC-OH; N-terminus and C-terminus assumed): > 40000 nM; `CC(C)C[C@H](NC(=O)[C@H](Cc1c[nH]cn1)NC(=O)[C@H](CO)NC(=O)CNC(=O)[C@H](CS)NC(=O)[C@H](CC(C)C)NC(=O)[C@H](Cc1c[nH]cn1)NC(=O)CC[C@H](NC(=O)C[C@H](N)C(=O)O)C(=O)O)C(=O)O` [OZHLCGSHL] ({βAsp-γGlu}-HLCGSHL-OH; N-terminus and C-terminus assumed): > 40000 nM. With GIPPAPHGV [reference compound], the IC50 under setting [1] came out at 219 nM.

For SLEEEIRFL [reference compound], under setting [1], the IC50 is 472 nM. `CC(C)C[C@H](NC(=O)[C@@H](N)Cc1ccc(O)c(Cl)c1)C(=O)N[C@H](C(=O)N[C@@H](CS)C(=O)NCC(=O)N[C@@H](CCC(=O)O)C(=O)N[C@@H](CCCNC(=N)N)C(=O)NCC(=O)N[C@@H](Cc1ccccc1)C(=O)O)C(C)C` [JLVCGERGF] (H-[Tyr(3-Cl)]LVCGERGF-OH; N-terminus and C-terminus assumed) showed a Fold increase (increase of A*02:01 binding of the modified peptide compared to the WT peptide) of 2.13 fold. For `CSCC[C@H](NC(=O)[C@H](Cc1c[nH]c2ccccc12)NC(=O)[C@H](CC(C)C)NC(=O)[C@H](C)N)C(=O)N[C@@H](CCCNC(N)=O)C(=O)N[C@@H](CC(C)C)C(=O)N[C@@H](CC(C)C)C(=O)N1CCC[C@H]1C(=O)N[C@@H](CC(C)C)C(=O)O` (H-ALWM[Cit]LLPL-OH), the IC50 under setting [3] was 28 nM. As for EALYLVCGER, the IC50 under setting [6] stood at 10100 nM. As for LQKRGIVEQC, under setting [2], the IC50 was > 40000 nM. As to TMHSLTIQM [reference compound], under setting [1], the IC50 stood at 104 nM. For the compound LCGSHLVEA, the IC50 under setting [7] is 1350 nM. As to `CC(C)C[C@H](NC(=O)[C@H](CC(=O)O)NC(=O)[C@H](CCC(=O)O)NC(=O)[C@H](C)NC(=O)[C@H](CCC(=O)O)NC(=O)[C@H](CCCNC(N)=O)NC(=O)[C@H](CCCNC(N)=O)NC(=O)[C@@H](NC(=O)[C@H](CCCCN)NC(=O)[C@@H]1CCCN1)[C@@H](C)O)C(=O)O` (H-PKT[Cit][Cit]EAEDL-OH; N-terminus and C-terminus assumed), the IC50 under setting [4] is > 40000 nM. On to FVNQHLCGS, for which the IC50 under setting [2] is > 40000 nM. Turning to `CC(C)C[C@H](NC(=O)[C@@H](N)Cc1ccc(O)cc1)C(=O)N[C@H](C(=O)N[C@@H](CS)C(=O)NCC(=O)N[C@@H](CCC(=O)O)C(=O)N[C@@H](CCCNC(N)=O)C(=O)NCC(=O)N[C@@H](Cc1ccccc1)C(=O)N[C@@H](Cc1ccccc1)C(=O)O)C(C)C` (H-YLVCGE[Cit]GFF-OH), under setting [5], the IC50 turned out to be 2620 nM. Consider SLQKRGIVE [SLQKRGIVE], for which the IC50 under setting [7] amounted to 5950 nM.

For LASEKVYTI [reference compound], under setting [1], the IC50 was determined as 1250 nM.

With “RLLPLWAAL [RLLPLWAAL, reference compound]”, under setting [1], the IC50 came to 52 nM. For `CC(C)C[C@H](NC(=O)[C@H](Cc1c[nH]cn1)NC(=O)[C@H](CO)NC(=O)CNC(=O)[C@H](CS(=O)(=O)O)NC(=O)[C@@H](N)CC(C)C)C(=O)N[C@H](C(=O)N[C@@H](CCC(=O)O)C(=O)N[C@@H](C)C(=O)O)C(C)C` [LBGSHLVEA] (H-L[Cya]GSHLVEA-OH), the IC50 under setting [5] came out at 14800 nM. For the compound VMNILLQYV [reference compound], the IC50 under setting [1] stood at 2020 nM. On to VMNILLQYVV [reference compound], for which, under setting [1], the IC50 was 2310 nM. As for ILDKKVEKV [reference compound], the IC50 under setting [1] worked out at 11200 nM.
